Values quoted from earlier work, collected in US20140031355A1, “HETEROCYCLIC COMPOUNDS AND THEIR USES” (Amgen Inc., priority 2010, published 2014).

How the values were obtained:
[1] = system: passive cutaneous anaphylaxis (PCA); conditions: absence of functional delta (IC 87114 and p110δ D910A mice)
[2] = system: ovalbumin-induced airway inflammation
p110δ = target: T1, p110δ (Homo sapiens, UniProt O00329)
T1 sequence (O00329 1-1044): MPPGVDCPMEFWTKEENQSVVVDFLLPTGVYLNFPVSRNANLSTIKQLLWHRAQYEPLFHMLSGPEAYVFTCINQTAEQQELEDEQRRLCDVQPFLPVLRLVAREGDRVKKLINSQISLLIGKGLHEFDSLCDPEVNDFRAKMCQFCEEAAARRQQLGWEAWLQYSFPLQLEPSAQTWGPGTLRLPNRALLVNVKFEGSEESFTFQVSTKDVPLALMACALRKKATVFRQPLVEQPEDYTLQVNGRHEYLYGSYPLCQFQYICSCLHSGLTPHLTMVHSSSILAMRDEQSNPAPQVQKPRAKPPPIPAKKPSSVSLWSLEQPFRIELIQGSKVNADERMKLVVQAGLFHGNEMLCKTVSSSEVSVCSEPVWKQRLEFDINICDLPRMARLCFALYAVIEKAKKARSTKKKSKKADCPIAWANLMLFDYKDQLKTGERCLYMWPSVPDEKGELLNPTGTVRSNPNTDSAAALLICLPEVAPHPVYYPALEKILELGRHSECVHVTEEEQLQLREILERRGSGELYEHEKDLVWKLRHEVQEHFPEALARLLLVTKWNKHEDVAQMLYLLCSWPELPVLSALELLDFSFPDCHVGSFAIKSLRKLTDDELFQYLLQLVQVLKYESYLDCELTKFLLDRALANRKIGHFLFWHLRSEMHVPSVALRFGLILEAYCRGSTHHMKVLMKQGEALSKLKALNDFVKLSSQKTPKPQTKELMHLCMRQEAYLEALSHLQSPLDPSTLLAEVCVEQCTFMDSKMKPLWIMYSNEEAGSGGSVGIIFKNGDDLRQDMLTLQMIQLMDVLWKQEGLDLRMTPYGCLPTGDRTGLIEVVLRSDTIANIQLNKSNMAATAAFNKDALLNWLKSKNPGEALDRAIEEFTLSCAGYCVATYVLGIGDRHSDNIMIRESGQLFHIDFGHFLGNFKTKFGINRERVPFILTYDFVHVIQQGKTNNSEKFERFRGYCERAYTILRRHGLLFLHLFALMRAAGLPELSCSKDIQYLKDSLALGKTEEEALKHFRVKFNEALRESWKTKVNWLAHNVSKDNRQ

[3] = system: systemic lupus erythematosis model; conditions: in vivo
[4] = system: rheumatoid arthritis model; conditions: in vivo

SMILES	passive cutaneous anaphylaxis (PCA) [1]	activity against any protein kinases tested (protein kinases)	inflammation and disease in a murine model of asthma [2]	inhibits p110δ (p110δ)	onset of disease in a model of systemic lupus erythematosis [3]	efficacy in a mouse model of rheumatoid arthritis [4]
Cc1ccccc1-n1c(Cn2cnc3c(N)ncnc32)nc2cccc(C)c2c1=O [IC87114]	significantly reduced	no activity	significantly ameliorate	high nanomolar range (triple digit)		
O=C1NC(=O)/C(=C\c2ccc3nccnc3c2)S1 [AS 605240]					delay onset of disease	efficacious
